Measured values taken from patent publication US5057493A, “Novel antibiotics R106” (priority 1988, dated 1991).
Starred links: 1 amine or outer side, 2 acyl side, 3 side chain; linkers in the order of their positions; H or OH if unused. Non-standard residues stand in square brackets, D forms with d. Residues, ends and D or L forms follow the SMILES beside them. ξ: configuration not given here. ξNMeVal(3-OH) = CNC(C(=O)O)C(C)(C)O; NMeF = CN[CH](Cc1ccccc1)C(=O)O; X1 = CCC(C)C(O[*:1])C(=O)[*:2]; NMeV = CN[CH](C(=O)O)C(C)C

Experiments:
[1] = test system: Cladosporium carrionii TIMM 0337; assay: MIC by agar dilution method, casitone agar; assay type: cell-based; conditions: 27° C. for 7 days
[2] = test system: Blastomyces dermatitidis TIMM 1690; assay: MIC by agar dilution method, casitone agar; assay type: cell-based; conditions: 27° C. for 7 days
[3] = test system: Histoplasma capsulatum TIMM 0713; assay type: cell-based; conditions: 27° C. for 7 days
[4] = test system: Sporothrix schenckii TIMM 0959; assay: MIC by agar dilution method, casitone agar; assay type: cell-based; conditions: 27° C. for 7 days
[5] = test system: Exophiala werneckii TIMM 1334; assay: MIC by agar dilution method, casitone agar; assay type: cell-based; conditions: 27° C. for 7 days
[6] = test system: Trichophyton mentagrophytes TIMM 1177; assay: MIC by agar dilution method, casitone agar; assay type: cell-based; conditions: 27° C. for 7 days
[7] = test system: Aspergillus clavatus TIMM 0056; assay: MIC by agar dilution method, casitone agar; assay type: cell-based; conditions: 27° C. for 7 days
[8] = test system: Aspergillus crustorum TIMM 1332; assay: MIC by agar dilution method, casitone agar; assay type: cell-based; conditions: 27° C. for 7 days
[9] = test system: Blastomyces dermatitidis TIMM 0126; assay: MIC by agar dilution method, casitone agar; assay type: cell-based; conditions: 27° C. for 7 days
[10] = test system: Paracoccidioides brasiliensis TIMM 0878; assay: MIC by agar dilution method, casitone agar; assay type: cell-based; conditions: 27° C. for 7 days
Description: (§1) The antibiotics R106 of the present invention are active against various fungi including pathogenic fungi. The minimum inhibitory concentration (MIC) of each antibiotic against various fungi was determined by the agar dilution method using casitone agar medium (2.0% glucose, 0.9% bacto-casitone, 1.0% yeast extract, 0.1% KH2 PO4, 0.1% Na2 HPO4, 1.0% sodium citrate, 2.0% agar: concentrations are all by w/v).
(§2) After culturing at 27° C. for 7 days, each minimum inhibitory concentration was determined.

[11] = test system: Paracoccidioides brasiliensis TIMM 0880; assay: MIC by agar dilution method, casitone agar; assay type: cell-based; conditions: 27° C. for 7 days
Description: as §1, §2

[12] = Physicochemical properties of compound 1
Text: Physicochemical properties of compound 1 are as follows.

[13] = test system: Aspergillus citrinum TIMM 1330; assay: MIC by agar dilution method, casitone agar; assay type: cell-based; conditions: 27° C. for 7 days
[14] = test system: Aspergillus nidulans TIMM 0112; assay: MIC by agar dilution method, casitone agar; assay type: cell-based; conditions: 27° C. for 7 days
[15] = test system: Trichosporon cutanum TIMM 1318; assay: MIC by agar dilution method, casitone agar; assay type: cell-based; conditions: 27° C. for 7 days
[16] = test system: Phialophora verrucosa TIMM 0903; assay: MIC by agar dilution method, casitone agar; assay type: cell-based; conditions: 27° C. for 7 days
[17] = test system: Cladosporium bantianum TIMM 0343; assay: MIC by agar dilution method, casitone agar; assay type: cell-based; conditions: 27° C. for 7 days
[18] = test system: Aspergillus niger TIMM 0113; assay: MIC by agar dilution method, casitone agar; assay type: cell-based; conditions: 27° C. for 7 days
[19] = 50% lethal dose (LD50) in mice; assay type: in vivo
Text: All of the antibiotics R106 show low toxicity. The results of 50% lethal dose (LD50) obtained when each of representative compounds of the present invention was given to mice intravenously, intraperitoneally and orally are shown in Table 7.

[20] = test system: Candida albicans TIMM 1529; assay: MIC by agar dilution method, casitone agar; assay type: cell-based; conditions: 27° C. for 4 days
Description: (§3) The minimum inhibitory concentration (MIC) of each antibiotic against various fungi was determined by the agar dilution method using casitone agar medium (2.0% glucose, 0.9% bacto-casitone, 1.0% yeast extract, 0.1% KH2 PO4, 0.1% Na2 HPO4, 1.0% sodium citrate, 2.0% agar: concentrations are all by w/v).
(§4) Each minimum growth inhibitory concentration was determined after culturing at 27° C. for 4 days.

[21] = test system: Candida parapsilosis TIMM 0287; assay: MIC by agar dilution method, casitone agar; assay type: cell-based; conditions: 27° C. for 4 days
Description: as §3, §4

[22] = test system: Cryptococcus terreus TIMM 0424; assay: MIC by agar dilution method, casitone agar; assay type: cell-based; conditions: 27° C. for 4 days
Description: as §3, §4

[23] = test system: Candida albicans TIMM 0144; assay: MIC by agar dilution method, casitone agar; assay type: cell-based; conditions: 27° C. for 4 days
Description: as §3, §4

[24] = test system: Cryptococcus laurentii TIMM 0352; assay: MIC by agar dilution method, casitone agar; assay type: cell-based; conditions: 27° C. for 4 days
Description: as §3, §4

[25] = test system: Candida guilliermondii TIMM 0257; assay: MIC by agar dilution method, casitone agar; assay type: cell-based; conditions: 27° C. for 4 days
Description: as §3, §4

[26] = test system: Candida tropicalis TIMM 0312; assay: MIC by agar dilution method, casitone agar; assay type: cell-based; conditions: 27° C. for 4 days
Description: as §3, §4

[27] = test system: Candida tropicalis TIMM 0315; assay: MIC by agar dilution method, casitone agar; assay type: cell-based; conditions: 27° C. for 4 days
Description: as §3, §4

[28] = test system: Cryptococcus neoformans TIMM 0354; assay: MIC by agar dilution method, casitone agar; assay type: cell-based; conditions: 27° C. for 4 days
Description: as §3, §4

Candida kefyr TIMM 0298 = assay: MIC by agar dilution method, casitone agar; assay type: cell-based; conditions: 27° C. for 4 days
Description: as §3, §4

[29] = test system: Cryptococcus neoformans TIMM 0363; assay: MIC by agar dilution method, casitone agar; assay type: cell-based; conditions: 27° C. for 4 days
Description: as §3, §4

[30] = test system: Rhodotorula rubra TIMM 0923; assay: MIC by agar dilution method, casitone agar; assay type: cell-based; conditions: 27° C. for 4 days
Description: as §3, §4

Candida krusei TIMM 0270 = assay: MIC by agar dilution method, casitone agar; assay type: cell-based; conditions: 27° C. for 4 days
Description: as §3, §4

[31] = test system: Candida albicans TIMM 1623; assay: MIC by agar dilution method, casitone agar; assay type: cell-based; conditions: 27° C. for 4 days
Description: as §3, §4

[32] = test system: Candida glabrata TIMM 1062; assay: MIC by agar dilution method, casitone agar; assay type: cell-based; conditions: 27° C. for 4 days
Description: as §3, §4

[33] = test system: Candida albicans var. stellatoidia TIMM 1308; assay: MIC by agar dilution method, casitone agar; assay type: cell-based; conditions: 27° C. for 4 days
Description: as §3, §4

[34] = test system: Candida glabrata TIMM 1064; assay: MIC by agar dilution method, casitone agar; assay type: cell-based; conditions: 27° C. for 4 days
Description: as §3, §4

[35] = test system: Cryptococcus neoformans TIMM 0355; assay: MIC by agar dilution method, casitone agar; assay type: cell-based; conditions: 27° C. for 4 days
Description: as §3, §4

Q: Which results are given for CCC(C)C1NC(=O)C2CCCN2C(=O)C(Cc2ccccc2)N(C)C(=O)C(Cc2ccccc2)NC(=O)C(C(C)C)N(C)C(=O)C(C(C)CC)OC(=O)C(C(C)(C)O)N(C)C(=O)C(CC(C)C)NC(=O)C(C(C)C)N(C)C1=O (centres unmarked) [Compound 1] (cyclo([ξNMeVal(3-OH)][X1][NMeV]F[NMeF]PI[NMeV]L); configuration not given here)?
A: Minimum Inhibitory Concentration [1]: 1.25 µg/mL; Minimum Inhibitory Concentration [2]: ≤ 0.04 µg/mL; Minimum Inhibitory Concentration [3]: 0.16 µg/mL; Minimum Inhibitory Concentration [4]: > 80 µg/mL; Minimum Inhibitory Concentration [5]: 1.25 µg/mL; Minimum Inhibitory Concentration [6]: > 80 µg/mL; Minimum Inhibitory Concentration [7]: 0.16 µg/mL; Minimum Inhibitory Concentration [8]: > 80 µg/mL; Minimum Inhibitory Concentration [9]: 0.31 µg/mL; Minimum Inhibitory Concentration [10]: 80 µg/mL; Minimum Inhibitory Concentration [11]: 0.31 µg/mL; Acidic, neutral or basic [12]: neutral substance; Solubility in solvent ([12]; organic solvents): soluble in chloroform, methanol, ethanol, N,N-dimethylformamide and dimethylsulfoxide; Solubility in solvent ([12]; water): sparingly soluble in water; Minimum Inhibitory Concentration [13]: > 80 µg/mL; Minimum Inhibitory Concentration [14]: 0.16 µg/mL; Minimum Inhibitory Concentration [15]: > 80 µg/mL; Minimum Inhibitory Concentration [16]: > 80 µg/mL; Minimum Inhibitory Concentration [17]: 0.63 µg/mL; Minimum Inhibitory Concentration [18]: > 80 µg/mL; LD50 ([19]; i.p.): > 400 mg/kg; LD50 ([19]; i.v.): > 200 mg/kg; LD50 ([19]; p.o.): > 1000 mg/kg; Minimum Inhibitory Concentration [20]: ≤ 0.04 µg/mL; Minimum Inhibitory Concentration [21]: 0.16 µg/mL; Minimum Inhibitory Concentration [22]: 0.31 µg/mL; Minimum Inhibitory Concentration [23]: ≤ 0.04 µg/mL; Minimum Inhibitory Concentration [24]: 0.31 µg/mL; Minimum Inhibitory Concentration [25]: 0.08 µg/mL; Minimum Inhibitory Concentration [26]: 0.08 µg/mL; Minimum Inhibitory Concentration [27]: 0.08 µg/mL; Minimum Inhibitory Concentration [28]: 0.63 µg/mL; Minimum Inhibitory Concentration (Candida kefyr TIMM 0298): 0.16 µg/mL; Minimum Inhibitory Concentration [29]: 1.25 µg/mL; Minimum Inhibitory Concentration [30]: 0.63 µg/mL; Minimum Inhibitory Concentration (Candida krusei TIMM 0270): ≤ 0.04 µg/mL; Minimum Inhibitory Concentration [31]: ≤ 0.04 µg/mL; Minimum Inhibitory Concentration [32]: ≤ 0.04 µg/mL; Minimum Inhibitory Concentration [33]: ≤ 0.04 µg/mL; Minimum Inhibitory Concentration [34]: 0.08 µg/mL; Minimum Inhibitory Concentration [35]: 0.31 µg/mL
